Source: PubChem BioAssay AID1845217 (Molecular Pharmacology Branch, DTP, NCI, 2023)

Test system: VA-ES-BJ tumor spheroid viability
Test: Anticancer human tumor VA-ES-BJ cell line growth inhibition;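 note: spheroids exposed to compounds for seven days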;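 for viability, T/C: percent of DMSO vehicle control viability so 100% = untreated growth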
Details: spheroids with HUVEC and MSC; for IC50: curve of first compound; for viability, T/C: stronger effect = lower value
Summary of the method: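 Complex spheroids of malignant cells with endothelial cells and mesenchymal stem cells; agents alone or combined, from near clinical Cmax (or 10 microM if unknown) down in half-log steps, 0.25% DMSO final.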

[1] = second compound 30 pM, first compound 0.00949 µM
[2] = second compound 30 pM, first compound 0.03 µM
[3] = second compound 30 pM, first compound 0.0949 µM
[4] = second compound 30 pM, first compound 0.3 µM
[5] = second compound 30 pM, first compound 0.949 µM
[6] = second compound 30 pM, first compound 3 µM
[7] = second compound 94.9 pM, first compound 0.00949 µM
[8] = second compound 94.9 pM, first compound 0.03 µM
[9] = second compound 94.9 pM, first compound 0.0949 µM
[10] = second compound 94.9 pM, first compound 0.3 µM
[11] = second compound 94.9 pM, first compound 0.949 µM
[12] = second compound 94.9 pM, first compound 3 µM
[13] = second compound 0.0003 µM, first compound 0.00949 µM
[14] = second compound 0.0003 µM, first compound 0.03 µM
[15] = second compound 0.0003 µM, first compound 0.0949 µM
[16] = second compound 0.0003 µM, first compound 0.3 µM
[17] = second compound 0.0003 µM, first compound 0.949 µM
[18] = second compound 0.0003 µM, first compound 3 µM
[19] = second compound 0.000949 µM, first compound 0.00949 µM
[20] = second compound 0.000949 µM, first compound 0.03 µM
[21] = second compound 0.000949 µM, first compound 0.0949 µM
[22] = second compound 0.000949 µM, first compound 0.3 µM
[23] = second compound 0.000949 µM, first compound 0.949 µM
[24] = second compound 0.000949 µM, first compound 3 µM
[25] = second compound 0.003 µM, first compound 0.00949 µM
[26] = second compound 0.003 µM, first compound 0.03 µM
[27] = second compound 0.003 µM, first compound 0.0949 µM
[28] = second compound 0.003 µM, first compound 0.3 µM
[29] = second compound 0.003 µM, first compound 0.949 µM
[30] = second compound 0.003 µM, first compound 3 µM

Compound | IC50 (second compound 30 pM) [nM] | IC50 (second compound 94.9 pM) [nM] | IC50 (second compound 0.0003 µM) [nM] | IC50 (second compound 0.000949 µM) [nM] | IC50 (second compound 0.003 µM) [nM] | viability, T/C [3] [%] | viability, T/C [4] [%] | viability, T/C [5] [%] | viability, T/C [6] [%] | viability, T/C [9] [%] | viability, T/C [10] [%] | viability, T/C [11] [%] | viability, T/C [12] [%] | viability, T/C [15] [%] | viability, T/C [16] [%] | viability, T/C [17] [%] | viability, T/C [18] [%] | viability, T/C [21] [%] | viability, T/C [22] [%] | viability, T/C [23] [%] | further results
CNCc1ccc(-c2cc(-c3nc(-c4ccc(S(=O)(=O)C(C)C)cc4)cnc3N)on2)cc1 + COc1cc2c(cc1O)CCNC21CSC2c3c(OC(C)=O)c(C)c4c(c3C(COC1=O)N1C(O)C3Cc5cc(C)c(OC)c(O)c5C(C21)N3C)OCO4 | 260 | 122 | < 9.49 | < 9.49 | < 9.49 | 82.8 | 45.7 | 7.78 | 1.72 | 51.1 | 34.1 | 6.4 | 1.3 | 36.5 | 23.9 | 5.48 | 1.1 | 4.65 | 1.83 | 0.95 | viability, T/C [1]: 91.9%; viability, T/C [2]: 90%; viability, T/C [7]: 85.9%; viability, T/C [8]: 79.8%; viability, T/C [13]: 47.9%; viability, T/C [14]: 44.7%; viability, T/C [19]: 3.65%; viability, T/C [20]: 3.36%; viability, T/C [24]: 1.89%; viability, T/C [25]: 1.45%; viability, T/C [26]: 1.2%; viability, T/C [27]: 0.99%; viability, T/C [28]: 1.37%; viability, T/C [29]: 1.15%; viability, T/C [30]: 0.13%
Cc1sc2c(c1C)C(c1ccc(Cl)cc1)=NC(CC(=O)Nc1ccc(O)cc1)c1nnc(C)n1-2 (stereo not given) + COc1cc2c(cc1O)CCNC21CSC2c3c(OC(C)=O)c(C)c4c(c3C(COC1=O)N1C(O)C3Cc5cc(C)c(OC)c(O)c5C(C21)N3C)OCO4 | 78 | 58.6 | < 9.49 | < 9.49 | < 9.49 | 48.9 | 27.4 | 24 | 17.5 | 42.3 | 27.3 | 21.3 | 10.5 | 23.7 | 13.7 | 6.9 | 2.06 | 5.43 | 1.01 | 0.08 | viability, T/C [1]: 83.6%; viability, T/C [2]: 65.8%; viability, T/C [7]: 79.4%; viability, T/C [8]: 60.9%; viability, T/C [13]: 38.7%; viability, T/C [14]: 32.4%; viability, T/C [19]: 8.09%; viability, T/C [20]: 2.88%; viability, T/C [24]: 0.14%; viability, T/C [25]: 1.18%; viability, T/C [26]: 1.31%; viability, T/C [27]: 1.36%; viability, T/C [28]: 1.87%; viability, T/C [29]: 2.19%; viability, T/C [30]: 3.69%
Cn1ncnc1[C@H]1c2n[nH]c(=O)c3cc(F)cc(c23)N[C@@H]1c1ccc(F)cc1 + COc1cc2c(cc1O)CCNC21CSC2c3c(OC(C)=O)c(C)c4c(c3C(COC1=O)N1C(O)C3Cc5cc(C)c(OC)c(O)c5C(C21)N3C)OCO4 | 329 | 155 | < 9.49 | < 9.49 | < 9.49 | 67.9 | 54.9 | 29.8 | 6.51 | 52.8 | 42.1 | 24 | 6.18 | 23.9 | 19.7 | 8.26 | 4.82 | 2.49 | 3.23 | 1.4 | viability, T/C [1]: 92.8%; viability, T/C [2]: 79.3%; viability, T/C [7]: 67.8%; viability, T/C [8]: 70.4%; viability, T/C [13]: 33.9%; viability, T/C [14]: 29.3%; viability, T/C [19]: 3.64%; viability, T/C [20]: 3.04%; viability, T/C [24]: 0.45%; viability, T/C [25]: 1.48%; viability, T/C [26]: 1.15%; viability, T/C [27]: 1.53%; viability, T/C [28]: 2.52%; viability, T/C [29]: 1.19%; viability, T/C [30]: 2.91%
O=C(c1cc(Cc2n[nH]c(=O)c3ccccc23)ccc1F)N1CCN(C(=O)C2CC2)CC1 + COc1cc2c(cc1O)CCNC21CSC2c3c(OC(C)=O)c(C)c4c(c3C(COC1=O)N1C(O)C3Cc5cc(C)c(OC)c(O)c5C(C21)N3C)OCO4 | 19000 | 11100 | < 94.9 | < 94.9 | < 94.9 | 86 | 95.8 | 99 | 91 | 90.5 | 84.7 | 86.9 | 76.9 | 44.3 | 40.7 | 43.6 | 33.2 | 3.35 | 2.46 | 3.04 | viability, T/C (second compound 30 pM, first compound 9.49 µM): 65%; viability, T/C (second compound 30 pM, first compound 30 µM): 40.1%; viability, T/C (second compound 94.9 pM, first compound 9.49 µM): 54.1%; viability, T/C (second compound 94.9 pM, first compound 30 µM): 24.4%; viability, T/C (second compound 0.0003 µM, first compound 9.49 µM): 16.1%; viability, T/C (second compound 0.0003 µM, first compound 30 µM): 5.05%; viability, T/C [24]: 2.86%; viability, T/C (second compound 0.000949 µM, first compound 9.49 µM): 1.46%; viability, T/C (second compound 0.000949 µM, first compound 30 µM): 0.33%; viability, T/C [27]: 1.2%; viability, T/C [28]: 1.64%; viability, T/C [29]: 1.77%; viability, T/C [30]: 2.03%; viability, T/C (second compound 0.003 µM, first compound 9.49 µM): 3.45%; viability, T/C (second compound 0.003 µM, first compound 30 µM): 4.01%
